For one series, the system named is HCT-116 p53−/− cells. Nature of the series: γH2AX foci staining for induction of DNA damage (genomic toxicity). It counts as cell-based, human. The note with it: YMU1 2 μM 2 days; FdUrd 2 μM 1 day. From the text:
FIG. 14. Effect of YMU1 on genomic toxicity and DNA repair. […] After overnight, cells were exposed to doxorubicin and recovered. […]
TMPK and TS are key enzymes in dTTP synthesis and TS has been a major chemotherapy target (Garg et al., 2010). Inhibition of TS by FdUrd causes genome toxicity (Longley et al., 2003). Given the shared role of TMPK and TS in dTTP synthesis, we next compared the effects of blocking TMPK and TS by either shRNA interference or inhibitor treatment on the induction of DNA damage.
For γH2AX, Rad51 and XRCC1 staining, cells were fixed with 4% paraformaldehyde for 30 min at room temperature and were incubated with TBS (50 mM Tris-HCl, pH 7.4, 150 mM NaCl) plus 0.3% Triton X-100 for 5 min. The coverslips were blocked with MAXblock™ (Active Motif) for 1 h at 37° C., followed by staining with primary antibodies: anti-γH2AX monoclonal antibody (1:1000), anti-Rad51 polyclonal antibody (1:500) or anti-XRCC1 monoclonal antibody (1:500) overnight at 4° C. After extensive washing, cells were stained with secondary antibodies and Hoechst 33342 for 1 h at room temperature. After mounting, cells were analyzed and photographed with a Carl Zeiss fluorescence microscope equipped with AxioCam digital camera and Axio Vision Rel. 4.8 imaging software.

For series [1], the system named is H184B5F5/M10, MCF-10A, MCF-7 and HCT-116 p53−/− cells. The series is described as follows: Colony assay of cell viability, YMU1 versus FdUrd. The note with it: various concentrations thrice a week, 14 days.
Protocol: (B) H184B5F5/M10 cells were seeded onto 100 mm-dish at 5,000 cells/dish. MCF-10A, MCF-7 and HCT-116 p53^−/− cells were seeded onto 6 well plate at 600 cells/well. Following overnight culture, cells were treated with various concentration of YMU1 or FdUrd thrice a week. After 14 days colonies were fixed, stained by crystal violet.
We also compared the effect of YMU1 and FdUrd on cell viability of non-tumorigenic mammary cycling cells, H184B5F5/M10 and MCF-10A and tumor lines, MCF-7 and HCT-116 p53^−/− cells.
After 14 days, colonies were fixed and stained by crystal violet and counted.

Molecules are shown by their SMILES.

`O=c1[nH]c(=O)n([C@H]2C[C@H](O)[C@@H](CO)O2)cc1F` [FdUrd, 5-fluoro-2′deoxyuridine]: the “induction of DNA damage (γH2AX staining)” value with HCT-116 p53−/− cells was “induced severe DNA damage”. Besides, in series [1], the “death of cells in colony assay” value is listed as “caused death of these cells”.

These data come from patent publication US9278982B2, “Targeting human thymidylate kinase induces DNA repair toxicity in malignant tumor cells” (NATIONAL YANG-MING UNIVERSITY, priority 2010, dated 2016).
